From US20230372292A1 (priority 2020, published 2023)

Columns and labels:
[1] = cited from earlier work
[2] = osteoarthritis, epilepsy, myocardial infarction (in combination with a platelet inhibitor); cited from earlier work
[3] = system: interleukin-1β release; conditions: after LPS treatment; cited from earlier work
[4] = system: inflammasome-mediated release of IL1beta; assay: Nigericin-induced IL-1β release in PMA-differentiated, LPS-stimulated THP-1 cells (ELISA); assay type: cell-based, human; conditions: PMA 50 nM 24 h, LPS 1 μg/mL 6 h
Protocol: THP-1 cells come from a child with leukemia. It is a pre-monocytic line, characterized by a suspension of (non-adherent) cells with a well rounded shape. The cells used come from ATCC. The cells are cultured at a density of 0.4.106 /mL in T75 flasks kept upright in RPMI 1640 Medium, Glutamax, Supplement HEPES (ThermoFischer Scientific, #72400027) supplemented with 10% FCS (previously decomplemented and flitre) and 1% PS antibiotics. The cultures are maintained at 37° C. under a humid atmosphere with 5% CO2.
The differentiation of THP-1 is induced by adding phorbol 12-myritate 13-acetate (PMA, 5 mg/mL stock in DMSO, InvivoGen, # tlrl-pma) to the medium. More precisely, the latter mimics the structure of diacylglycerol (DAG) which is an activator of protein Kinase C (PKC). Thus, it allows the stimulation of the expression of transcription factors including NF-kB, which are involved in macrophage differentiation (Park E. K. et al., 2007; Daigneault M. et al., 2010). After treatment with PMA the cells acquire a macrophages-like phenotype, that is, they become adherent and no longer divide. In practice, the cells are seeded on 24-well plates at a density of 300.103 cells/well, the PMA is then added for 24 hours at a concentration of 50 nM. The next day, the cells are washed gently with PBS and fresh complete medium is added, the cells are then left for 3 days. […]

[5] = biological target: T1, Caspase-3 (Homo sapiens, UniProt P42574); conditions: active form of Belnacasan; cited from earlier work
T1 sequence (P42574 29-175 limits assumed): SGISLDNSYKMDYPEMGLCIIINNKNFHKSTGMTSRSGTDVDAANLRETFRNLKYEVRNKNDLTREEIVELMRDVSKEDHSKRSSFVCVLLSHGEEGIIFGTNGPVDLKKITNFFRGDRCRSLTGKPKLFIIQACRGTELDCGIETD
T1 sequence (P42574 176-277 limits assumed): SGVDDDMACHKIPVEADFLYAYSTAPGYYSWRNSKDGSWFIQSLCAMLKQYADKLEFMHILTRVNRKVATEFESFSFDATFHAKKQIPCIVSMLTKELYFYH

[6] = biological target: T2, Caspase-4 (Homo sapiens, UniProt P49662); conditions: active form of Belnacasan; cited from earlier work
T2 sequence (P49662 81-270 limits assumed): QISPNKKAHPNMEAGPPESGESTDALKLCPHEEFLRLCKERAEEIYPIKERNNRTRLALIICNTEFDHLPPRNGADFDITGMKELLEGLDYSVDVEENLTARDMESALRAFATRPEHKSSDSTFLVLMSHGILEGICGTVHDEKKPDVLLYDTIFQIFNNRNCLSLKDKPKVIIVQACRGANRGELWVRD
T2 sequence (P49662 290-377 limits assumed): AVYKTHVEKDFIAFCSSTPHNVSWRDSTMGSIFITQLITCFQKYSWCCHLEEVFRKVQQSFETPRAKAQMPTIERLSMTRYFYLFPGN

[7] = biological target: T3, Caspase-7 (Homo sapiens, UniProt P55210); conditions: active form of Belnacasan; cited from earlier work
T3 sequence (P55210 24-198 limits assumed): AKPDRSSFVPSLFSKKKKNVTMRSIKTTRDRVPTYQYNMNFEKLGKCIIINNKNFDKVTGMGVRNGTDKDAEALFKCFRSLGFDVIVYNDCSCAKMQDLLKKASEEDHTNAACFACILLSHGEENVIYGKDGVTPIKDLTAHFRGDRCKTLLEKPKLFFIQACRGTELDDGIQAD
T3 sequence (P55210 207-303 limits assumed): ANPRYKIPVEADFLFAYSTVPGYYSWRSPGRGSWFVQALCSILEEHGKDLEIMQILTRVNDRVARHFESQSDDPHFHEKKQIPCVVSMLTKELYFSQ

[8] = biological target: T4, Caspase-9 (Homo sapiens, UniProt P55211); conditions: active form of Belnacasan; cited from earlier work
T4 sequence (P55211 1-315 limits assumed): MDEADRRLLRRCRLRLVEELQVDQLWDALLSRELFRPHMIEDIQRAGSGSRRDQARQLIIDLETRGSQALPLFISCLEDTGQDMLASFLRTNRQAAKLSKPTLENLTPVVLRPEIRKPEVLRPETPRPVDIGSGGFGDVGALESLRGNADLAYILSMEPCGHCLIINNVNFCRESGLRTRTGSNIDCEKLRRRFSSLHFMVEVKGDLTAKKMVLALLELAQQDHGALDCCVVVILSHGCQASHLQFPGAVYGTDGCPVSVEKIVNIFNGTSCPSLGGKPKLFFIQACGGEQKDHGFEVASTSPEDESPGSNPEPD
T4 sequence (P55211 331-416 limits assumed): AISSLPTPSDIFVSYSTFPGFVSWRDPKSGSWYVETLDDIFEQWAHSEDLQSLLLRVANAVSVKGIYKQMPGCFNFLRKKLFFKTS

Compound	tolerability in humans ([1]; oral)	decrease in the frequency of epileptic episodes (secondary endpoint) ([1]; phase 2b, 60 patients with epilepsy (48 VX-765), no statistical superiority vs placebo) [%]	primary endpoint of safety and tolerance ([1]; phase 2b, 60 patients with epilepsy)	efficacy in animal models [2]	efficacy in cellular models of interleukin-1β release [3]	reduction of the release of the cytokine IL-1β into the medium ([4]; 25 μM, after 120 minutes of Nigericin treatment) [%]	release of IL-1beta induced by nigericin ([4]; Nigericin 5 μM for 60 and 120 minutes, n=3)	Ki [5] [µM]	Ki [6] [µM]	Ki [7] [µM]	Ki [8] [µM]
CCO[C@@H]1OC(=O)C[C@@H]1NC(=O)[C@@H]1CCCN1C(=O)[C@@H](NC(=O)c1ccc(N)c(Cl)c1)C(C)(C)C [Belnacasan, (S)-1-((S)-2-(4-Amino-3-chlorobenzamido)-3,3-dimethylbutanoyl)-N-((2R,3S)-2-ethoxy-5-oxotetrahydrofuran-3-yl)pyrrolidine-2-carboxamide]	well tolerated	15.6	reached	significant efficacy	effective	90	prevents the release	–	–	–	–
CC(C)(C)[C@H](NC(=O)c1ccc(N)c(Cl)c1)C(=O)N1CCC[C@H]1C(=O)N[C@H](C=O)CC(=O)O [VRT-043198]	–	–	–	–	–	–	–	16	< 0.0006	21.5	1
